According to PMC7717691, “Design, synthesis, and anticonvulsant effects evaluation of nonimidazole histamine H3 receptor antagonists/inverse agonists containing triazole moiety” (Journal of Enzyme Inhibition and Medicinal Chemistry, 2020):
Structures can show the parent of a compound that is named as a salt. Where two headings read alike, the source gives them in different places.

Tests used:
H3R = molecular target: T1, H3R (Homo sapiens, UniProt Q9Y5N1); assay: CRE-driven luciferase reporter gene assay, H3R antagonistic activity; format: cell-based; settings: for % Antagonism 100 nM: 100 nM compound; for % Antagonism 100 nM / % Antagonism 1 μM: HEK-293 cells expressing human H3R, mean ± SD of three experiments; for % Antagonism 1 μM: 1 μM compound; for IC50: CRE luciferase assay, HEK-293 cells, Table 1
T1 construct: expressed in transfected cells
T1 sequence (Q9Y5N1 whole entry): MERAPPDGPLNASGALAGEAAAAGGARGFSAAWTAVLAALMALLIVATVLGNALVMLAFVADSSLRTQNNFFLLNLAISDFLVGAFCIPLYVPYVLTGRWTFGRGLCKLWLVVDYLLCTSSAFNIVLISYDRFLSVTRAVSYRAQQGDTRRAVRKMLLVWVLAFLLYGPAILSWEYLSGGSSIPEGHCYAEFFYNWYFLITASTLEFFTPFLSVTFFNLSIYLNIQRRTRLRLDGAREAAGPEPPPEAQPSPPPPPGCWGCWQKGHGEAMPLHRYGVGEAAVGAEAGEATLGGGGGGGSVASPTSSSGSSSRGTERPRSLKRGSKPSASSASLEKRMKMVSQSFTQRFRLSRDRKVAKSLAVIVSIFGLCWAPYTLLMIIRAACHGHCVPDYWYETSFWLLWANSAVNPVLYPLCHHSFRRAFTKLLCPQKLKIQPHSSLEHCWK
Description: cAMP-response element (CRE) reporter gene assay has been extensively used to evaluate the efficacy of GPCR antagonists or agonists. […] Initially, compounds and positive controls were tested at two concentrations (100 nM and 1 µM) to obtain the preliminary investigation of their H3R antagonistic activities. In the assays, the antagonistic activities was positively correlated with the rise of the fluorescence value and indicated by the % antagonism. For the prominent compounds IC50 values were determined at additional assays.
Human thalamus poly-A RNA (Clontech, Palo Alto, CA, USA) was used to clone the hH3R gene by RT-PCR. DNA PCR primers were designed in the light of the reported human histamine receptor gene sequences (GenBank accession no.AF140538). HEK-293 cells were cultured and transfected for the luciferase assay. The detailed procedures were described in the previous publication.
Stable HEK-293 cells, which had been co-transfected with H3R and pCRE-Luc, were seeded in a 96-well plate overnight, and were grown to 90–95% confluence[43]^,[44]. Then the cells were treated with various concentrations of tested compounds in serum-free DMEM and incubated for 20 min. Cells were then stimulated with 100 nM Histamine in serum-free DMEM containing 2 µM Forskolin and incubated for 4 h at 37 °C. Firefly luciferase assay kits (Ken-real, Shanghai, China) were used to determine the luciferase activity.

MES-induced convulsions = MES-induced convulsions model; format: in vivo; settings: mice; for protection against MES-induced convulsions (reduction or abolition of THLE): 10 mg/kg, i.p., 30 min before stimulation, vs saline group
Excerpt: Protection for the mice was defined as the reduction or abolition of the tonic hind limb extension (THLE) in the MES model in mice.
Ear stimulation with alternating current (0.2 s, 60 Hz, 50 mA) was used to induce the seizures in mice. The reduction or abolition of the hind limb tonic extension (THLE) of mice was considered protective against the MES-induced seizures[29]^,[48]. […]

intracellular cAMP = assay: Effect of compounds administrated alone on the level of intracellular cAMP; format: cell-based; settings: for effect on the level of cAMP when treated alone: compound alone, ANOVA followed by Dunnett's test, Figure 2
Excerpt: It is well known that H3R is a GPCR coupled with Gαi. When the ligand (histamine) binds to H3R, the dissociated Gαi inhibits the activity of adenylate cyclase (AC) and down-regulates the level of intracellular cAMP. In this CREs driven luciferase assay, when cells were pre-treated by H3R antagonists, the downregulation of cAMP would be inhibited, and the level of intracellular cAMP would regain to the initial level.

MES = settings: cited from earlier work
PTZ = settings: 10 μg & 20 μg icv; cited from earlier work

Structure (SMILES) | % Antagonism 100 nM (H3R) | % Antagonism 1 μM (H3R) | IC50 (H3R) | protection against MES-induced convulsions (reduction or abolition of THLE) (MES-induced convulsions) | melting point | effect on the level of cAMP when treated alone (intracellular cAMP) | also measured
Cl.c1cc(-n2cnnc2)ccc1OCCCCN1CCCCC1 [Compound 3p, 1-(4–(4-(4H-1,2,4-triazol-4-yl)phenoxy)butyl)piperidine hydrochloride] | 25.00 ± 3.95% | 90.52 ± 5.71% | 3440 nM | did not achieve a significant difference from the control group | 80 to 82 °C | – | –
O=C(c1ccc(OCCCc2cnc[nH]2)cc1)C1CC1 [CPX, ciproxifan, reference compound] | 33.96 ± 8.59% | 63.05 ± 9.33% | – | – | – | no significant effects | –
CCCCCCOc1ccc(-n2cnnc2)cc1 [III] | – | – | – | – | – | – | MES (mice) (MES; 10 mg/kg i.p.): protection
c1cc(-n2cnnc2)ccc1OCCCCCN1CCCCC1 (as salt: HCl) [Compound 3q, 1-(5-(4-(4H-1,2,4-triazol-4-yl)phenoxy)pentyl)piperidine] | – | – | – | – | 70 to 74 °C | – | –
NCCc1c[nH]cn1 [Histamine] | – | – | – | – | – | no significant effects | –
CCN(CC)CCCOc1ccc(-n2cnnc2)cc1.Cl [Compound 3a, 3-(4-(4H-1,2,4-triazol-4-yl)phenoxy)-N,N-diethylpropan-1-amine hydrochloride] | 49.85 ± 9.73% | 223.76 ± 7.56% | 2990 nM | moderate protection | 105 to 106 °C | no significant effects | –
Cl.Cl.c1cc(-n2cnnc2)ccc1OCCCN1CCNCC1 [Compound 3d, 1-(3-(4-(4H-1,2,4-triazol-4-yl)phenoxy)propyl)piperazine dihydrochloride] | 11.33 ± 5.86% | 79.4 ± 4.50% | – | – | 146 to 148 °C | – | –
C=C[C@@]1(C)CC(=O)[C@]2(O)[C@@]3(C)[C@@H](O)CCC(C)(C)[C@@H]3[C@H](O)[C@H](OC(C)=O)[C@@]2(C)O1 [forskolin, reference compound] | – | – | – | – | – | – | rise of the cAMP level compared to the control group (intracellular cAMP; forskolin 2 µM): more than 200 times
c1ccc(C2CCN(CCCOc3ccc(-n4cnnc4)cc3)CC2)cc1 [Compound 3i, 1-(3-(4-(4H-1,2,4-triazol-4-yl)phenoxy)propyl)-4-phenylpiperidine] | 5.19 ± 2.06% | 16.45 ± 1.90% | – | – | 124 to 126 °C | – | –
Cl.c1cc(-n2cnnc2)ccc1OCCCN1CCOCC1 [Compound 3g, 4-(3-(4-(4H-1,2,4-triazol-4-yl)phenoxy)propyl)morpholine hydrochloride] | −0.76 ± 4.87% | 20.24 ± 7.56% | – | moderate protection | 237 to 239 °C | – | –
NC(=O)C1CCN(CCCOc2ccc(-n3cnnc3)cc2)CC1 [Compound 3j, 1-(3-(4-(4H-1,2,4-triazol-4-yl)phenoxy)propyl)piperidine-4-carboxamide] | −4.2 ± 3.11% | 6.12 ± 2.05% | – | – | 196 to 198 °C | – | –
c1ccc(N2CCN(CCCOc3ccc(-n4cnnc4)cc3)CC2)cc1 [Compound 3f, 1-(3-(4-(4H-1,2,4-triazol-4-yl)phenoxy)propyl)-4-phenylpiperazine] | 9.96 ± 10.9% | 24.41 ± 6.30% | – | – | 172 to 174 °C | – | –
NC(=NCc1ccc(Cl)cc1)SCCCc1cnc[nH]1 [Clobenpropit] | – | – | – | – | – | – | MES (mice) (MES; 0.3, 1, 3 mg/kg i.p.): protection; PTZ (rats) (PTZ): protection
Cl.c1cc(-n2cnnc2)ccc1OCCCN1CCCC1 [Compound 3c, 4-(4-(3-(pyrrolidin-1-yl)propoxy)phenyl)-4H-1,2,4-triazole hydrochloride] | 32.23 ± 5.69% | 143.98 ± 16.16% | 553 nM | did not achieve a significant difference from the control group | 120 to 122 °C | no significant effects | –
CN1CCN(CCCOc2ccc(-n3cnnc3)cc2)CC1.Cl [Compound 3e, 1-(3-(4-(4H-1,2,4-triazol-4-yl)phenoxy)propyl)-4-methylpiperazine hydrochloride] | 9.86 ± 0.87% | 21.78 ± 3.04% | – | – | 220 to 223 °C | – | –
c1cc(-n2cnnc2)ccc1OCCCN1CCCCC1 [Compound 3h, 1–(3-(4-(4H-1,2,4-triazol-4-yl)phenoxy)propyl)piperidine] | 10.56 ± 7.94% | 239.79 ± 3.17% | 127 nM | moderate protection | 249 to 252 °C | no significant effects | –
Cl.c1cc(-n2cnnc2)ccc1OCCN1CCCCC1 [Compound 3o, 1-(2-(4–(4H-1,2,4-triazol-4-yl)phenoxy)ethyl)piperidine hydrochloride] | 45.04 ± 3.61% | 94.20 ± 2.60% | 250 nM | moderate protection | 85 to 87 °C | – | –
c1cc(-n2cnnc2)ccc1OCCCCCN1CCCCC1 [Compound 3q, 1-(5-(4-(4H-1,2,4-triazol-4-yl)phenoxy)pentyl)piperidine] | 1.88 ± 12.38% | 2.39 ± 13.85% | – | – | – | – | –
Cc1nncn1-c1ccc(OCCCN2CCCCC2)cc1.Cl [Compound 3k, 1-(3-(4–(3-methyl-4H-1,2,4-triazol-4-yl)phenoxy)propyl)piperidine hydrochloride] | 133.91 ± 8.91% | 183.54 ± 14.41% | 21 nM | did not achieve a significant difference from the control group | 240 to 242 °C | no significant effects | –
C[C@@H](N)Cc1cnc[nH]1 [RAMH, R-(α)-methyl-histamine, reference compound] | – | – | – | – | – | – | effect on duration of THLE, administered alone (MES-induced convulsions; 10 mg/kg i.p. alone, p > 0.05 vs saline): did not affect the duration of THLE
c1ccc(-c2nncn2-c2ccc(OCCCN3CCCCC3)cc2)cc1 [Compound 3l, 1-(3-(4-(3-phenyl-4H-1,2,4-triazol-4-yl)phenoxy)propyl)piperidine] | 148.62 ± 4.43% | 169.04 ± 15.04% | 7.81 nM | moderate protection | 88 to 90 °C | no significant effects | –
CCCN(CCC)CCCOc1ccc(-n2cnnc2)cc1.Cl [Compound 3b, 3-(4-(4H-1,2,4-triazol-4-yl)phenoxy)-N,N-dipropylpropan-1-amine hydrochloride] | 13.24 ± 4.83% | 15.02 ± 4.03% | – | – | 180 to 183 °C | – | –
c1ccc(-c2ccc(-c3nncn3-c3ccc(OCCCN4CCCCC4)cc3)cc2)cc1 [Compound 3n, 1-(3-(4-(3-([1,1’-biphenyl]-4-yl)-4H-1,2,4-triazol-4-yl)phenoxy)propyl)piperidine] | 1.03 ± 7.79% | 3.36 ± 1.27% | – | – | 66 to 68 °C | – | –
